Our source for the IC50 and EC50 values is patent EP2611798B1, “PYRIDAZINONES, METHOD OF MAKING, AND METHOD OF USE THEREOF” (Gilead Connecticut, Inc., priority 2010, dated 2012).

Molecules are shown by their SMILES.

In experiment [1] the target is T1, full length human wildtype Btk (Homo sapiens, UniProt Q06187).
T1 construct: V5 (C); 6xHis (C); made in house; host or cells: Sf9 insect cells (baculovirus, pFastBac)
The experiment is described as follows: Biochemical Btk Kinase Assay (Example 901). Particulars: time-resolved fluorescence, final ATP concentration 40 µM; alternatively Lanthascreen assay, ATP 25 uM. How it is done: Formula I compounds were tested by a standard biochemical Btk Kinase Assay (Example 901). A generalized procedure for a standard biochemical Btk Kinase Assay that can be used to test Formula I compounds is as follows. […] Btk enzyme is prepared as follows: full length human wildtype Btk (accession number NM-000061) with a C-terminal V5 and 6x His tag was subcloned into pFastBac vector for making baculovirus carrying this epitope-tagged Btk. Generation of baculovirus is done based on Invitrogen's instructions detailed in its published protocol "Bac-to-Bac Baculovirus Expression Systems" (Cat. Nos. 10359-016 and 10608-016). Passage 3 virus is used to infect Sf9 cells to overexpress the recombinant Btk protein. The Btk protein is then purified to homogeneity using Ni-NTA column. The purity of the final protein preparation is greater than 95% based on the sensitive Sypro-Ruby staining. A solution of 200 µM ATP is prepared in water and adjusted to pH7.4 with 1N NaOH. A quantity of 1.25 µL of compounds in 5%DMSO is transferred to a 96-well ½ area Costar polystyrene plate. Compounds are tested singly and with an 11-point dose-responsive curve (starting concentration is 10 µM; 1:2 dilution). A quantity of 18.75 µL of master mix minus enzyme (as a negative control) and master mix plus enzyme is transferred to appropriate wells in 96-well ½ area costar polystyrene plate. 5 µL of 200 µM ATP is added to that mixture in the 96-well ½ area Costar polystyrene plate for final ATP concentration of 40 µM. The reaction is allowed to incubate for 1 hour at room temperature. The reaction is stopped with Perkin Elmer 1X detection buffer containing 30 mM EDTA, 20 nM SA-APC, and 1 nM PT66 Ab. The plate is read using time-resolved fluorescence with a Perkin Elmer Envision using excitation filter 330 nm, emission filter 665 nm, and 2nd emission filter 615 nm. IC50 values are subsequently calculated. Alternatively, the Lanthascreen assay can be used to evaluate Btk activity through quantification of its phosphorylated peptide product. The FRET (Fluorescence Resonance Energy Transfer) that occurs between the fluorescein on the peptide product and the terbium on the detection antibody decreases with the addition of inhibitors of Btk that reduce the phosphorylation of the peptide. […] After incubation for 60 minutes at room temperature, the reaction is stopped by the addition of a final concentration of 2 nM Tb-PY20 detection antibody in 60 mM EDTA for 30 minutes at room temperature. Detection is determined on a Perkin Elmer Envision with 340 nm excitation and emission at 495 nm and 520 nm. Exemplary Btk inhibition IC50 values are in Tables and 2.
(In general: In TR-FRET formats the signal depends on donor and acceptor labels being close together.)

Experiment [2] has as its system production of CD69 by B lymphocytes in human whole blood. The experiment is described as follows: CD69 Whole Blood Assay (Example 907). It is filed as cell-based. The conditions noted are these: Lymphocyte; human whole blood activated with goat F(ab')2 anti-human IgM, 20 hours; percent CD69 positive cells that are also CD20 positive. The text has this:
A CD69 Whole Blood Assay can be conducted on Formula I compounds to determine the ability of compounds to inhibit the production of CD69 by B lymphocytes in human whole blood activated by crosslinking surface IgM with goat F(ab')2 anti-human IgM (Example 907).
Human blood is obtained from healthy volunteers, with the following restrictions: 1 week drug-free, non-smokers. Blood (approximately 20 mls to test 8 compounds) is collected by venipuncture into Vacutainer® (Becton, Dickinson and Co.) tubes with sodium heparin.
Solutions of Formula I compounds at 10 mM in DMSO are diluted 1:10 in 100% DMSO, then are diluted by three-fold serial dilutions in 100% DMSO for a ten point dose-response curve. The compounds are further diluted 1:10 in PBS and then an aliquot of 5.5 µl of each compound is added in duplicate to a 2 ml 96-well plate; 5.5 µl of 10% DMSO in PBS is added as control and no-stimulus wells. Human whole blood - HWB (100 µl) is added to each well. After mixing the plates are incubated at 37 °C, 5% CO2, 100% humidity for 30 minutes. Goat F(ab')2 anti-human IgM (10 µl of a 500 µg/ml solution, 50 µg/ml final) is added to each well (except the no-stimulus wells) with mixing and the plates are incubated for an additional 20 hours. At the end of the 20 hour incubation, samples are incubated with fluorescent labeled antibodies for 30 minutes, at 37 °C, 5% CO2, 100% humidity. Include induced control, unstained and single stains for compensation adjustments and initial voltage settings. Samples are then lysed with PharM Lyse™ (BD Biosciences Pharmingen) according to the manufacturer's instructions. Samples are then transferred to a 96 well plate suitable to be run on the BD Biosciences HTS 96 well system on the LSRII machine. Data acquired and Mean Fluorescence Intensity values were obtained using BD Biosciences DIVA Software. Results are initially analyzed by FACS analysis software (Flow Jo). […] The IC50 values are calculated by Prism version 5, using a nonlinear regression curve fit.

The subject of the next experiment is CD86 surface expression. The experiment is described as follows: CD86 Inhibition Assay (Example 905), inhibition of B cell activity in total mouse splenocytes. Particulars: Splenocyte; total mouse splenocytes stimulated with 15 µg/ml IgM for 24 hr; gated on CD19+/7AAD- population. The format is cell-based, Balb/c mice. How it is done:
A CD86 Inhibition assay can be conducted on Formula I compounds for the inhibition of B cell activity using total mouse splenocytes purified from spleens of 8-16 week old Balb/c mice (Example 905).
A generalized procedure for a standard assay for the inhibition of B cell activity that can be used to test Formula I compounds is as follows. Total mouse splenocytes are purified from spleens of 8-16 week old Balb/c mice by red blood cell lysis (BD Pharmingen #555899). Testing compounds are diluted to 0.5% DMSO and incubated with 1.25 x 10^6 splenocytes in a final volume of 200 µl in flat clear bottom plates (Falcon 353072) for 60 min at 37°C. Cells are then stimulated with the addition of 15 µg/ml IgM (Jackson ImmunoResearch 115-006-020), and incubated for 24 hr at 37°C, 5% CO2. Following the 24 hr incubation, cells are transferred to conical bottom clear 96-well plates and pelleted by centrifugation at 1200 x g x 5 min. Cells are preblocked by CD16/CD32 (BD Pharmingen #553142), followed by triple staining with CD19-FITC (BD Pharmingen #553785), CD86-PE (BD Pharmingen #553692), and 7AAD (BD Pharmingen #51-68981E). Cells are sorted on a BD FACSCalibur and gated on the CD19^+/7AAD^- population. The levels of CD86 surface expression on the gated population is measured versus test compound concentration. Exemplary results are in Table 3.

T1 sequence (Q06187 whole entry): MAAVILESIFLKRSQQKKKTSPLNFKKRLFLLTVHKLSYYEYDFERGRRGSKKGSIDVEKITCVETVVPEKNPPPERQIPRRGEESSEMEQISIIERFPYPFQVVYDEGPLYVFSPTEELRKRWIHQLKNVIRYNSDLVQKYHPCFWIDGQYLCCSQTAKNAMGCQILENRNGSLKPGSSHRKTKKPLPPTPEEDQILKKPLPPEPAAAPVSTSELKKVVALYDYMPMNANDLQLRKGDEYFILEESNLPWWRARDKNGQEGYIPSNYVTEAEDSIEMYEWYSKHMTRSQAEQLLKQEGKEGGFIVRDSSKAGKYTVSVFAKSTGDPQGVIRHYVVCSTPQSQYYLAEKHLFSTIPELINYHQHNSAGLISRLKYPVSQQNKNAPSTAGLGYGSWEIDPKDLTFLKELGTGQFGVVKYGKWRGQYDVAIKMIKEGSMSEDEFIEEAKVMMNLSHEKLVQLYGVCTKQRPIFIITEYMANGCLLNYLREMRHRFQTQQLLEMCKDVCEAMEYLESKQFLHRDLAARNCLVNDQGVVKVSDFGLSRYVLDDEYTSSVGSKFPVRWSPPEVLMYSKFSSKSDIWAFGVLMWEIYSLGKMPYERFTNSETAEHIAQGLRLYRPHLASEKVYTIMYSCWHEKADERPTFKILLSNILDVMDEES

As to `Cc1c(-c2cc(Nc3cc(C4CC4)[nH]n3)c(=O)[nH]n2)cccc1N1Cc2cc(C(C)(C)C)sc2C1=O` [Compound 113, 6-(3-{2-tert-butyl-6-oxo-4H,5H,6H-thieno[2,3-c]pyrrol-5-yl}-2-methylphenyl)-4-[(5-cyclopropyl-1H-pyrazol-3-yl)amino]-2,3-dihydropyridazin-3-one], the IC50 (commonly the concentration needed to halve the response being measured) in experiment [1] was 4 nM; in experiment [2], 213 nM.
In the case of `CC(C)(C)c1cc2c(s1)C(=O)N(c1nc(-c3cc(Nc4cc(C5CC5)[nH]n4)c(=O)[nH]n3)ccc1F)C2` [Compound 116, 6-(6-{2-tert-butyl-6-oxo-4H,5H,6H-thieno[2,3-c]pyrrol-5-yl}-5-fluoropyridin-2-yl)-4-[(5-cyclopropyl-1H-pyrazol-3-yl)amino]-2,3-dihydropyridazin-3-one], the IC50 came out at 35 nM in experiment [1] and 2500 nM in experiment [2].
Consider `Cc1c(-c2cc(Nc3cc4n(n3)CCN(C)C4)c(=O)[nH]n2)cc(F)cc1N1Cc2cc(C(C)(C)C)sc2C1=O` [Compound 122, 6-(3-{2-tert-butyl-6-oxo-4H,5H,6H-thieno[2,3-c]pyrrol-5-yl}-5-fluoro-2-methylphenyl)-4-({5-methyl-4H,5H,6H,7H-pyrazolo[1,5-a]pyrazin-2-yl}amino)-2,3-dihydropyridazin-3-one], for which the EC50 (as a rule, the midpoint of the concentration-response curve) in the experiment with CD86 surface expression was found to be 211 nM. In experiment [2], inhibition was half-maximal at 101 nM (IC50).
`CC(=O)N1CCn2nc(Nc3cc(-c4cccc(N5Cc6cc(C(C)(C)C)sc6C5=O)c4CCO)nn(C)c3=O)cc2C1` [Compound 128, 6-(3-{2-tert-butyl-6-oxo-4H,5H,6H-thieno[2,3-c]pyrrol-5-yl}-2-(2-hydroxyethyl)phenyl)-4-({5-acetyl-4H,5H,6H,7H-pyrazolo[1,5-a]pyrazin-2-yl}amino)-2-methyl-2,3-dihydropyridazin-3-one] had an IC50 in experiment [2] of 568 nM.
In experiment [2], `Cn1nc(-c2cccc(N3Cc4cc(C(C)(C)C)sc4C3=O)c2CO)cc(Nc2cc3n(n2)CCN(C2CC2)C3)c1=O` [Compound 133, 6-(3-{2-tert-butyl-6-oxo-4H,5H,6H-thieno[2,3-c]pyrrol-5-yl}-2-(hydroxymethyl)phenyl)-4-({5-cyclopropyl4H,5H,6H,7H-pyrazolo[1,5-a]pyrazin-2-yl}amino)-2-methyl-2,3-dihydropyridazin-3-one] registered an IC50 of 147 nM.
For the compound `Cn1nc(-c2ccc(F)c(N3Cc4cc(C(C)(C)C)sc4C3=O)c2CO)cc(Nc2cc(C3CC3)[nH]n2)c1=O` [Compound 142, 6-(3-{2-tert-butyl-6-oxo-4H,5H,6H-thieno[2,3-c]pyrrol-5-yl} -4-fluoro-2-(hydroxymethyl)phenyl)-4-[(5-cyclopropyl-1H-pyrazol-3-yl)amino]-2-methyl-2,3-dihydropyridazin-3-one], the EC50 in the experiment with CD86 surface expression worked out at 1200 nM. Further, inhibition in experiment [2] was half-maximal at 410 nM (IC50).
